Data set [1] can be described thus: Body weight, survival, adverse events and organ examination in mice with full-thickness wounds. It counts as in vivo, BALB/c mice. Conditions: for loss of body weight: 3 and 7 days post-injury (FIG. 1A). Here is the method:
Animals: The Institutional Animal Care and Use Committee of the University of Texas Medical Branch in Galveston (UTMB) approved all protocols and studies were conducted in accordance with animal welfare regulations. Healthy 7-week-old male BALB/c mice (N=58) (strain 028, Charles River Laboratories, Houston, Texas, USA) 18-22 g were socially housed in temperature-and light-controlled facilities at UTMB with free access to food and water. Animals were acclimatized for one week before surgical procedures.
(§1) A Balb/C mice excision model was used with a cutaneous full-thickness injury made by a 6-mm diameter punch biopsy. The mice were 7-weeks old and 52 animals were used in the studies discussed herein.
(§2) Animals were administered the RB-containing PF-127-containing hydrogel every other day. A total of three animal treatment groups were studied along with two control groups. one group received vehicle plus light treatment, whereas the other group received vehicle without light. One treatment group of mice received 0.1% RB-containing hydrogel with irradiation for 30 minutes using monochromatic green light (MGL), λ=532 nm at a distance of 2.5 cm that provided […] and a dose of 35J/cm^2. A second treatment group also received 0.1% RB-containing hydrogel, but without MGL irradiation. The third treatment group received 0.01% RB-containing hydrogel without MGL irradiation.
(§3) Primary outcomes assessed safety through analysis of full complete blood count (CBC), comprehensive blood chemistry, body and organ weight. Secondary outcomes analyzed wound closure, epidermal water loss, erythema, and comprehensive wound histology.
(§4) In the primary outcome and measures and observations, the treated animals and a control group received a full CBC and comprehensive blood chemistry panel, as well as observations of body weight food consumption, and organ appearance. Secondarily, wound closure, epidermal water loss erythema and wound histology were examined.
(§5) to determine the effects of rose bengal on blood parameters, blood samples were collected at euthanasia through cardiac puncture and were analyzed for complete blood count using an Abaxis VETSCAN® HM5 Hematology Analyzer Allied Analytic, LLC., Tampa, FL. The blood components analyzed included: white blood cells [WBC], lymphocytes [LYMPH], monocytes [MONO], neutrophils [NEUT], red blood cells [RBC], hemoglobin [HGB], hematocrit [HCT], mean corpuscle volume [MCV], mean corpuscle hemoglobin [MCH], mean corpuscle hemoglobin concentration [MCHC], platelets [PLT], and mean platelet volume [MPV]. Blood chemistry was also analyzed using an Abaxis VETSCAN® VS2 Chemistry Analyzer—Diagnostics to determine liver and Pancreas function through Albumin [ALB], Alkaline phosphatase [ALP], Alanine aminotransferase [ALT], Total bilirubin [tBIL], Total protein [TPRT], Globulin [GLOB], and Amylase [AMY]. Glucose & electrolyte levels were determined by measuring Glucose [GLU], Calcium [CA], Phosphorus [PHOS], Sodium [NA], and Potassium [K]. Kidney Function was assessed through Creatinine [CRE] and Blood urea nitrogen [BUN] levels.

Data set [2] in a line: Complete blood count and blood chemistry panel. It counts as in vivo, BALB/c mice.
Text: as §3, §4, §5

For data set [3], the system named is full-thickness cutaneous wounds. In words: Transepidermal water loss (TEWL) over the wound, DermaLab Combo. It counts as in vivo, BALB/c mice. Conditions: 0.01% RBS, no irradiation; for TEWL relative to usual (pre-injury) range: day 14 post-injury (FIG. 2B); for TEWL compared with vehicle alone: day 14 post-injury, p<0.0001 (FIG. 2B). Here is the method: (§6) Animals were placed under general anesthesia and a 10-mm diameter TEWL probe was placed directly over each wound ensuring uniform coverage and forming a seal immediately around the wound. Following environmental normalization to ambient temperature and relative humidity, TWEL was calculated at […]. A minimum of three TWEL measurements were obtained for each full-thickness wound and uninjured skin area. A color sensitive 7-mm diameter probe, insensitive to ambient light, was then placed over each wound to measure erythema; four measures were obtained for each wound. All wound erythema calculations were normalized to uninjured skin and reported as an index value over time.
as §6, with “At each time point prior to euthanasia, transepidermal water loss (TEWL) and wound erythema indices were measured using the validated DermaLab combo system (CortexTechnologies, Hadsund, Denmark). Animals” for “Animals”, “TEWL” for “TWEL”

Data set [4] has the same test system. In words: Wound erythema index, DermaLab Combo. Format: in vivo, BALB/c mice. As to the method:
as §6
as §6, with “At each time point prior to euthanasia, transepidermal water loss (TEWL) and wound erythema indices were measured using the validated DermaLab combo system (CortexTechnologies, Hadsund, Denmark). Animals” for “Animals”, “TEWL” for “TWEL”

Data set [5] has the same test system. Kind of data set: Wound closure by planimetry of digital images. Conditions: for wound closure compared with vehicle alone: 0.01% RB, no irradiation, day 3 post-injury (FIG. 4). Format: in vivo, BALB/c mice. Here is the method:
as §1, §2
Before surgery, animals received buprenorphine (0.1 mg kg^−1) for pre-procedural analgesia, and inhaled isoflurane (0.2-1.0%) was continuously administered throughout the procedure. The dorsum of the animal was shaved, a depilatory cream was applied to completely remove all dorsal hair, and the area was scrubbed with betadine antiseptic. The animal was laid in the right lateral decubitus position and using forceps, the dorsal skin was stretched, and a 6-mm punch biopsy was used to create bilateral full-thickness cutaneous wounds. Next, a 0.5 mm-thick silicone ring was sutured in place through the panniculus carnosus around each wound to ensure wounds healed primarily through re-epithelialization.
Animals were then randomized into treatment groups as follows: (1) Saline control in the dark, (2) Saline control with MGL irradiation, (3) Hydrogel vehicle in the dark, (4) Hydrogel vehicle with MGL irradiation, (5) RB in the dark, and (6) RB with MGL irradiation. Treatment was applied directly to the wound bed (800 uL per wound) and spread using a sterile surgical spatula to ensure even and uniform thickness over the wound.
Animals were then placed in a separate light-sealed and heated enclosure in a sternal position to expose dorsal wounds and remained under general isoflurane anesthesia. All other exposed portions of the body were then covered with sterile wrap to expose only the wounds. […] Animals were euthanized at 3-, 7-, and 14-days post-injury when wound healing parameters were assessed.
After initial surgery and at each study time point post-injury, color digital images were obtained for each wound. […] Wound planimetry was calculated using ImageJ software (ver. 1.53) by tracing wound edges yielding a surface area in […]. Wound closure was calculated as follows: […]

For data set [6] the test system is unchanged. In words: Tissue ROS generation in full-thickness injury. Format: in vivo, Balb/c mice. Conditions: RB phototherapy. The text has this:
Following functional and planimetric measurements, animals were euthanized and the dorsal skin, inclusive down to underlying facia and dorsal musculature, was excised; care was employed to not disrupt any open wound post-mortem and maintain tissue integrity. The left-side wound and surrounding uninjured skin was directly transferred into a flat position histology cassette and the right-side wound was immediately snap-frozen in liquid nitrogen for reactive oxygen species and molecular analyses. Histology cassettes were then immersed in 10% neutral buffer formalin for 72 hours and subsequently placed in 70% ethanol thereafter. Uninjured skin tissue for each animal was also collected and preserved for future analyses.
Data are presented as mean±SD with n=3-6 animals per group

Data set [7] can be described thus: Tolerated bolus dose on intravasation after intratumoral PV-10. It counts as in vivo. Conditions: equivalent of the 1500 mg bolus. Here is the method:
The wounds were treated with an aqueous pharmaceutical composition prepared using a PV-10®-based rose bengal formulation. PV-10® is a sterile, non-pyrogenic 10% solution of disodium RB in 0.9% saline for injection. Using PV-10®, as its RB source, RB has been tolerated at a bolus dose of 1500 mg upon intravasation when delivered intratumorally; this equates to an exposure of approximately 300 mg/L in the bloodstream (300 μM RB).

For data set [8] the following is noted: PV-10 as RB source, delivered intratumorally; cited from earlier work.
The conditions of data set [9]: non-medical grade rose bengal, photoactivation with 550 nm MGL; cited from earlier work.
The subject of data set [10] is full-thickness cutaneous wounds. In words: Number of blood vessels in the wound area (smooth muscle actin staining). It counts as in vivo, BALB/c mice. As to conditions: 0.01% RBS in vehicle, p<0.05 (FIG. 6); group not clearly stated.
Setting [11] is: 0.01% RB every other day without photoactivation.
Where [12] appears, read: 0.1% RB every other day with or without photoactivation.
Setting [13] is: 0.1% RB every other day with or without photoactivation, out to 7 days.
Where [14] appears, read: 0.01% RBS, no irradiation, day 7 post-injury, p<0.0001 (FIG. 3B).
Where [15] appears, read: 0.01% RBS, no irradiation, day 14 post-injury.

The source of these data is US20250345275A1, “Micromolar Halogenated Fluorescein Assists in Full Skin-Thickness Wound Healing” (priority 2024, published 2025).

Each structure is given as a SMILES string. Values joined by “and” are separate entries in the source; they are usually repeats but may differ in a detail not shown here. Equal values may be shown once. “Also recorded” adds a separate entry of the source.

In the case of `O=C1OC2(c3cc(I)c(O)c(I)c3Oc3c2cc(I)c(O)c3I)c2c(Cl)c(Cl)c(Cl)c(Cl)c21` [RB, 4,5,6,7-tetrachloro-2′, 4′, 5′, 7′-tetraiodo-fluorescein], the adverse events result in data set [1] (setting [11]) and in data set [1] (setting [12]) was “no adverse events noted” in each case. Besides, the “survival through time course” value in data set [1] (0.01% RB every other day without photoactivation, n=33) is listed as “All animals survived”; in data set [1] (0.1% RB every other day with or without photoactivation, n=19) it was “All animals survived”. For the same compound, the Mean body mass entry in data set [1] (0.01% RB every other day without photoactivation, throughout treatment) was “maintained”. Further, the body weight result in data set [1] (0.01% RB, no irradiation, day 14 post-injury (between day 7 and 14)) is “slight weight gains; also recorded: gained weight; also recorded: slight increase”; in data set [1] (0.1% RB with and without irradiation, first seven days post-injury), “lost weight”; in data set [1] (vehicle containing 0.01% RB, no irradiation, days 3 and 7 post-injury (FIG. 1B)), “constant weights; also recorded: maintained their weights”. Further, the “mean body mass loss” value in data set [1] (setting [13]) was around 5%. The “Body weight and gross examination of internal organs” value in data set [1] (at euthanasia) was “did not show any signs of toxicity”. The “loss in body or organ weight” value in data set [1] (either treatment regimen (single or multidose)) was “No loss”. Besides, in data set [1] (single (photoactivated) and multidose (ambient light, covered) topical application to full-thickness wounds), the “toxicity / safety for wound healing applications” value is recorded as “did not illicit toxicity”. Besides, the other chemistries result in [2] (setting [11]) and in [2] (setting [12]) was “within normal ranges” in each case. Also, the “Erythrocytes and platelets size, morphology, count” value in data set [2] (0.01% RB every other day without photoactivation, out to 14 days) is reported as “normal”; in [2] (setting [13]), “normal”. Also, the Leukocyte count entry in [2] (0.01% RB every other day without photoactivation, out to 14 days post-injury/treatment) is “normal”; in data set [2] (0.1% RB every other day with or without photoactivation, out to 7 days post-injury), “normal”. Moreover, the mean amylase result in [2] (0.01% RB every other day without photoactivation, all groups) is “Elevated”; in data set [2] (0.1% RB every other day with or without photoactivation, all treated groups), “Elevated”. Besides, the “TEWL relative to usual (pre-injury) range” value in data set [3] is reported as “about at the normal level”. For the same compound, the “TEWL compared with vehicle alone” value in data set [3] was “significantly reduced”. Moreover, in [4] (setting [14]), the “erythema index compared with vehicle alone” value is recorded as “significantly increased”. In addition, in data set [4] (0.1% RB, days 3 and 7 post injury (FIG. 3A)), the “erythema, day 3 versus day 7” value was “about the same”. The “wound closure compared with vehicle alone” value in data set [5] is given as “accelerates wound closure”. Besides, the “wound closure compared with saline- or vehicle-treated wounds” value in [5] (RB with or without MGL irradiation, 3 and 7 days after injury) is “significantly closes full-thickness wounds faster”. For the same compound, the “wound closure compared with every other treatment group” value in data set [5] (photoactivated RB, 14 days post-injury, p<0.05) is listed as “significantly increased wound closure”. The “tissue ROS” value is on record as “significantly increased tissue ROS” in data set [6] (3 days post-injury, versus all other treatments); “abates to nominal levels” in data set [6] (day 14); “sustained” in data set [6] (throughout 7 days, versus all other treatments). In addition, the “exposure in the bloodstream” value in [7] is “approximately 300 mg/L and 300 μM”. In addition, the “tolerated bolus dose upon intravasation” value in data set [8] is recorded as 1500 mg. Further, in [9], the wound closure result is reported as “accelerates wound closure”. Besides, the wound healing entry in data set [9] is listed as “improves wound healing”.

For `O=C([O-])c1c(Cl)c(Cl)c(Cl)c(Cl)c1-c1c2cc(I)c(=O)c(I)c-2oc2c(I)c([O-])c(I)cc12.[Na+].[Na+]` [RBS, rose bengal disodium], the “loss of body weight” value in data set [1] (0.1% RBS with irradiation (MGL)) is “approximately 5%”. The “loss of body weight” value in [1] (0.1% RBS without irradiation) is “approximately 5%”. In data set [3], the “TEWL relative to usual (pre-injury) range” value is “back at their usual range” and the “TEWL compared with vehicle alone” value was “statistically significant difference”. In addition, in data set [4] (setting [14]), the “erythema index compared with vehicle alone” value was “statistically significant difference”. For the same compound, in data set [4] (setting [15]), the “erythema index compared with vehicle alone” value is reported as “not statistically different” and the “erythema index relative to usual values” is “very similar to the usual erythema index values”. Moreover, the “wound closure compared with vehicle alone” value in data set [5] is on record as “statistically significantly less”. Also, in data set [10], the “number of blood vessels, day 7 versus day 3 post-injury” value is “statistically greater”.
